Patent US20220228985A1, “FLUORESCENT COMPOSITION FOR DETECTING BIOLOGICAL MATERIAL” (Bioacts Corporation, priority 2021, published 2022)

Tested on: red blood cells
Assay: Microscopic analysis of hemolytic efficacy of surfactant compound
Type: cell-based
Conditions: E-check (low concentration), microscope X200 DIC, control PBS, FIG. 4
Procedure: Microscopic analysis was performed to visually confirm the blood hemolysis effect of the blood analysis reagent prepared with the compound of Chemical Formula 3 and the compound of Chemical Formula 4 as the surfactant compound. The blood analysis reagent prepared in E-check (low concentration), a quality control reagent, was treated and microscopic analysis was performed. The analysis was performed with a Nikon ECLIPSE microscope, and measured under X200 DIC filter conditions. As a control, a sample obtained by treating PBS in an E-check reagent was used.

Row | SMILES | hemolysis of red blood cells
1 | CCCCCCCCCCCCCCn1cc(COCCOCCOCCOCCOCCOCCOCCOCCOCCOCCOCCOCCOCCOCCOCCOCCOCCOCCOCCOCCOCCO)nn1 [Chemical Formula 4] | excellent efficacy in hemolysis of red blood cells
2 | CCCCCCCCn1cc(COCCOCCOCCOCCOCCOCCOCCOCCOCCOCCO)nn1 [Compound 3b] | most cleanly hemolyzed
